The values that follow come from PubChem BioAssay (NCI).

Each structure is given as a SMILES string. “And” between values parts separate entries of the source, which are not always exact repeats. Equal entries are not always repeated.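 Five compound concentrations were applied to cells in 96-well plates for 48 hours; endpoints were derived by simple linear interpolation of the resulting dose-response curve. Here, GI50 denotes the concentration required for 50% inhibition of growth. TGI denotes the concentration required for complete inhibition of growth.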

Among the test systems are HS 578T breast; MCF7 breast; MDA-N; T-47D breast; LXFL 529 NSCLC; M19-MEL melanoma; RXF-631 renal; SNB-78 CNS; XF 498 CNS; P388/ADR leukemia; SN12K1 renal.
Assay in all cases: NCI tumour cell line growth inhibition, 48 h

In the case of `C=CS(=O)(=O)CCN1CC1`, the TGI with HS 578T breast, with MCF7 breast, with MDA-N and in the experiment with T-47D breast was above 10 µM in each case.

Take `CC12Oc3ccc4ccccc4c3CC1Cc1c(ccc3ccccc13)O2` (stereo unspecified): the TGI in the experiment with LXFL 529 NSCLC and in the experiment with M19-MEL melanoma was above 100 µM each time.

As for `CCc1nc(N)nc(N)c1-c1ccc(Cl)c(N=CN(C)C)c1`, the TGI with HS 578T breast, with MCF7 breast, with MDA-N and in the experiment on T-47D breast was above 100 µM in each case.

As for `O=C1OC(c2ccccc2)=N/C1=C\c1cccc(F)c1`, the TGI in the experiment with HS 578T breast, in the experiment on MCF7 breast, in the experiment on MDA-N and in the experiment with T-47D breast was above 100 µM in each case.

Regarding `CCOC(=O)C1=C(Nc2ccc(Cl)c(Cl)c2)OC/C1=N\NS(=O)(=O)c1ccc(C)cc1`, the TGI in the experiment on LXFL 529 NSCLC, in the experiment on M19-MEL melanoma, with RXF-631 renal, with SNB-78 CNS and with XF 498 CNS was above 100 µM each time.

`O=C(CC1C(=O)Nc2ccccc2S1=O)Nc1ccc(Cl)cc1` (stereo unspecified): the TGI in the experiment on LXFL 529 NSCLC and with SNB-78 CNS was above 100 µM each time.

For the compound `COC(=O)C1=C(c2ccc3c(c2)OCO3)OC(c2cc(OC)c(OC)c(OC)c2)C1` (stereo unspecified), the TGI with LXFL 529 NSCLC, with M19-MEL melanoma, in the experiment with SNB-78 CNS and with XF 498 CNS was above 100 µM each time.

As for `CC1=CC(=O)N(c2c(C)cccc2Cl)C(C)N1` (stereo unspecified), the TGI in the experiment on LXFL 529 NSCLC, with M19-MEL melanoma, in the experiment with RXF-631 renal and with SNB-78 CNS was above 100 µM in each case.

For `CN(C)C(=S)/N=c1\ss/c(=N\S(=O)(=O)c2ccccc2)n1N(C)C`, the TGI in the experiment with LXFL 529 NSCLC, in the experiment with M19-MEL melanoma, with RXF-631 renal and in the experiment on SNB-78 CNS was above 100 µM in each case.

As to `Cc1cc2c(cc1N)C(C)C1(CCC(=O)N2Cc2ccccc2)OCCO1` (stereo unspecified), the TGI in the experiment on HS 578T breast, in the experiment on MCF7 breast, with MDA-N and in the experiment on T-47D breast was above 100 µM each time.

`COC1=C2CC(C)CC(OC)C(O)C(C)/C=C(\C)C(OC(N)=O)C(OC)/C=C\C=C(/C)C(=O)NC(=C(/C=N/N3CCCCC3)C1=O)C2=O` (stereo unspecified): the TGI with LXFL 529 NSCLC was 24.1 µM; with M19-MEL melanoma it was 19 µM; in the experiment on RXF-631 renal, 35.1 µM; in the experiment with SNB-78 CNS it was 48.3 µM; with XF 498 CNS it was 19.9 µM.

With `O=S(=O)(C/C(=N\O)c1ccccc1)c1ccccc1`, the TGI in the experiment on LXFL 529 NSCLC, in the experiment with M19-MEL melanoma, with RXF-631 renal, in the experiment on SNB-78 CNS and with XF 498 CNS was above 100 µM throughout.

`COc1ccc2nc(NC(=O)C(=O)C(C#N)c3ccc(Cl)c(Cl)c3)sc2c1` (stereo unspecified): the TGI with LXFL 529 NSCLC, with M19-MEL melanoma, in the experiment with RXF-631 renal, with SNB-78 CNS and in the experiment on XF 498 CNS was above 100 µM each time.

On to `O=C(O)CCSC(=O)Nc1ccc(N=Nc2ccccc2)cc1`, for which the TGI in the experiment on LXFL 529 NSCLC, with RXF-631 renal, with SNB-78 CNS and in the experiment with XF 498 CNS was above 100 µM in each case.

`O=C(O)/C=C/C(=O)N1C/C(=C\c2ccccc2)C(=O)/C(=C/c2ccccc2)C1`: the TGI with LXFL 529 NSCLC is 3.72 µM; in the experiment with M19-MEL melanoma, 9.41 µM; in the experiment with MCF7 breast, 18.3 µM; in the experiment on P388/ADR leukemia, above 70.7 µM; in the experiment with SN12K1 renal, 3.57 µM; with SNB-78 CNS it was 24.2 µM. The compound further came in with a TGI with XF 498 CNS of 15.8 µM.

For `CC(=O)Oc1ccc(C(c2ccc(OC(C)=O)cc2)c2ccccn2)cc1`, the TGI with HS 578T breast was 0.677 µM and 0.638 µM; in the experiment with LXFL 529 NSCLC it was above 100 µM; in the experiment on M19-MEL melanoma it was above 100 µM; with MCF7 breast, above 100 µM; in the experiment with MDA-N, above 100 µM; in the experiment with RXF-631 renal it was above 100 µM. The TGI in the experiment on T-47D breast is 0.532 µM and 1.19 µM; with XF 498 CNS, above 86.1 µM. In addition, the results for the GI50 with MCF7 breast and with T-47D breast were 0.516 µM and 0.204 µM, respectively.

For the compound `COc1cc2c(c(OC3OC(CO)C(O)C(O)C3O)c1)C(=O)CC(c1ccc(O)cc1)O2` (stereo unspecified), the TGI in the experiment on HS 578T breast, in the experiment with MCF7 breast, in the experiment with MDA-N and in the experiment with T-47D breast was above 100 µM throughout.

Turning to `Nn1c(N=Nc2c(O)[nH]c3c(Cl)cc(Cl)cc23)n[nH]c1=S`, the TGI in the experiment on LXFL 529 NSCLC, with M19-MEL melanoma and in the experiment with SNB-78 CNS was above 100 µM in each case.

For the compound `O=C(NS(=O)(=O)c1ccccc1)C(Cc1ccccc1)C(Cc1ccccc1)C(=O)NS(=O)(=O)c1ccccc1` (stereo unspecified), the TGI with LXFL 529 NSCLC and in the experiment on M19-MEL melanoma was above 100 µM in each case.

As to `CN1CC(=O)N(C)c2nc[nH]c2C1=O`, the TGI in the experiment with LXFL 529 NSCLC, with M19-MEL melanoma, in the experiment with RXF-631 renal, with SNB-78 CNS and with XF 498 CNS was above 100 µM in each case.

On to `Cc1ncc([N+](=O)[O-])n1CCNC(=O)Cn1c([N+](=O)[O-])cnc1C`, for which the TGI with HS 578T breast, in the experiment on MCF7 breast, with MDA-N and in the experiment on T-47D breast was above 100 µM each time.

`Oc1ccc(Cl)cc1CNc1nc2ccccc2[nH]1`: the GI50 in the experiment on HS 578T breast is 13.6 µM; with MCF7 breast it was 10.4 µM; in the experiment with T-47D breast it was 13.3 µM. Further, the TGI in the experiment with HS 578T breast was 42.1 µM; in the experiment on MCF7 breast, 33.1 µM; in the experiment with T-47D breast it was 47.9 µM.

With `Cc1cccc(C(C)(C)C)c1NC(=O)CC1Sc2ccccc2NC1=O` (stereo unspecified), the TGI with LXFL 529 NSCLC, with M19-MEL melanoma and in the experiment with RXF-631 renal was above 100 µM in each case.

Take `C=C1c2c(Cl)ccc(O)c2C(O)=C2C(=O)[C@]3(O)C(O)=C(C(N)=O)C(=O)[C@@H](N(C)C)[C@@H]3[C@@H](O)[C@H]12`: the GI50 in the experiment on HS 578T breast is 1.24 µM; with MCF7 breast it was 1.76 µM; in the experiment on T-47D breast, 1.07 µM. For the same compound, the TGI in the experiment with HS 578T breast turned out to be 9.68 µM; with MCF7 breast it was 6.66 µM; in the experiment with T-47D breast, 4.06 µM.
